Consider 3 molecules from patent US20180071281A1, “TREATING CHRONIC RHINOSINUSITIS” (Gerbe Labs Inc., priority 2016, published 2018).

The conditions of series [1]: cited from earlier work; for systemic absorption: used topically.
In the next series the test system is chronic rhinosinusitis. The series can be described thus: Case studies: patients with chronic rhinosinusitis treated with nebulized formulation. Format: in vivo, human. The note with it: particularly in combination with the compositions and formulations; vancomycin in cases where MRSA is present. An excerpt:
In all of the following studies, the skin testing of Example 1 was used to identify the inhalant antigen or antigens responsible for triggering systemic inflammatory symptoms and the localized inflammatory sinus symptoms. The chronic rhinosinusitis of the patients was all successfully treated. Moreover, the patients also experienced resolution of systemic inflammatory symptoms.
Each of the patients avoided additional exposure to the fungal spores that were identified by the skin test. The patients ostia was dilated, and the formulation was administered with a nebulizer. Additionally, systemic anti-fungal medication directed toward the specific fungi was administered for 4-6 weeks, followed by intermittent nebulization with mometasone and 2% mupirocin powder, which has both anti-fungal and anti-bacterial properties. These treatments were administered every other day to every third day for several months with C-reactive protein (CRP} levels checked every 4-6 weeks to monitor change.
Patient 1 is a retired nurse who presented with chronic fatigue, chronic headaches, facial pain, and a sleep disorder characterized by Rapid Eye Movement (REM) sleep deprivation. The patient was a two pack/day smoker. […] The patient was treated with a formulation of 125 mg tobramycin, […]

The subject of the next series is S. aureus. The series can be described thus: Culture from Patient 7, sensitivity of bacteria. In kind it is cell-based. The note with it: Patient 7 culture. The source says: The patient underwent the standard workup for CRS, sleep disorder, and nasal obstruction, plus our diagnostic skin test and sinus CT scan.
Series [2] relates to gram negative and gram positive organisms. The settings on record: cited from earlier work.

For `C[C@@H]1C[C@H]2[C@@H]3CCC4=CC(=O)C=C[C@]4(C)[C@@]3(Cl)[C@@H](O)C[C@]2(C)[C@@]1(OC(=O)c1ccco1)C(=O)CCl` [Mometasone furoate], the safety entry in series [1] (topical, nasal cavity and sinuses, approved for children under the age of 3) is “very safe”. Moreover, in series [1], the systemic absorption result is “very little systemic absorption”.
On to `CN[C@H](CC(C)C)C(=O)N[C@H]1C(=O)N[C@@H](CC(N)=O)C(=O)N[C@H]2C(=O)N[C@H]3C(=O)N[C@H](C(=O)N[C@H](C(=O)O)c4cc(O)cc(O)c4-c4cc3ccc4O)[C@H](O)c3ccc(c(Cl)c3)Oc3cc2cc(c3O[C@@H]2O[C@H](CO)[C@@H](O)[C@H](O)[C@H]2O[C@H]2C[C@](C)(N)[C@H](O)[C@H](C)O2)Oc2ccc(cc2Cl)[C@H]1O` [vancomycin], for which, in the series on chronic rhinosinusitis, the “effectiveness of the antibiotic” value is given as “highly effective”.
As to `NC[C@H]1O[C@H](O[C@H]2[C@H](O)[C@@H](O[C@H]3O[C@H](CO)[C@@H](O)[C@H](N)[C@H]3O)[C@H](N)C[C@@H]2N)[C@H](N)C[C@@H]1O` [tobramycin], the “sensitivity of cultured S. aureus” value in the series with S. aureus is reported as “sensitive”. In addition, the “effectiveness of the antibiotic” value with chronic rhinosinusitis was “highly effective”. Also, the “activity against gram negative and gram positive organisms” value in series [2] is “excellent activity”. Further, the oral absorption entry in series [1] (orally) is “very, very poorly absorbed”. For the same molecule, in series [1], the systemic absorption entry is given as “not absorbed systemically”.
